# Results published in patent publication EP4737449A1 (Changchun Genescience Pharmaceutical Co., Ltd., priority 2023, dated 2025).
# Molecular target: T1, p53-Y220C mutant protein (Homo sapiens, UniProt P04637, Y220C)
# T1 construct: The recombinant Y220C p53 DBD protein with his-tag
# Test: In vitro DNA binding activity assay (TR-FRET)
# Format: biochemical
# Details: concentration required to increase the binding activity of protein to DNA by 50%
# Description: The activity of the compound to modulate the binding of the p53-Y220C mutant protein to DNA was detected using TR-FREt (Time-Resolved Fluorescence Resonance Energy Transfer). The recombinant Y220C p53 DBD protein with his-tag and the DNA sequence with biotin label were prepared firstly. Donor Eu(Europium)-SA(Streptavidin) can be bound to the DNA sequence through biotin, receptor for his antibody attached to alphaphycocyanin(APC, allophycocyanin), and his antibody can be bound to the Y220C p53 DBD protein with his-tag. When exposed to an excitation light with a wavelength of 340 nm, the donor Eu(Europium)-SA(Streptavidin) can emit fluorescence with a wavelength of 615 nm. If the donor and the receptor are close to each other, the donor will transfer part of the energy to the receptor and produce fluorescence with a wavelength of 665 nm. […] If there is no interaction, only 615 nm fluorescence is produced. • 1) Experimental steps • a. Adding 4 µL of dilute compound solution to each well of a 384-well microplate; • a. Adding 4 µL of 4X P53 working solution to each well of the 384-well microplate; • c. Sealing the 384-well microplate and equilibrating the system at room temperature for 60 min; • d. Adding 4 µl of biotin DNA solution to the 384-well microplate; • e. Adding 4 µl of 4X test solution (MAb Anti-6His-Eu and streptavidin-d2) to each well of the 384-well microplate; • f. Incubating overnight in the dark; and • g. Reading data of 665 nm and 615 nm wavelengths on the BMG multifunctional microplate reader. • 2) Data analysis • a. Calculating the ratio for each well (Ratio665 nm/615 nm-Ratiobackground); • b. Calculating the activity percentage (%activity) as follows: C = (Ave_Ac−Ave_Ba)/(Ave_Dc−Ave_Bd) [formula] R data = (A−Ave_Ba−CD)/(D−Ave_Bd)*(Ave_Dc−Ave_Bd) [formula] % Activity = R data/Ave_VC*100 [formula] • A: Fluorescence intensity of the sample at 665 nm; D: Fluorescence intensity of the sample at 615 nm; • Ba: Background fluorescence intensity of the culture plate at 665 nm; Bd: Background fluorescence intensity of the culture plate at 615 nm; • Dc: Background fluorescence intensity of HIS-E at 615 nm; Ac: Background fluorescence intensity of streptavidin-d2 at 665 nm); and • c. Calculating SC150 and plotting dose-effect curve
# Compared to the absence of the compound of the present invention, the activation percentage of binding of the p53 mutant protein to DNA in the presence of the compound of the present invention is expressed as SC150, which indicates the concentration of the compound required to increase the DNA binding activity of the p53 mutant protein by 50%. The SC150 is calculated using Prism™.
row,SC150 [nM],Compound
1,25,"CN1CC[C@@H](Nc2cccc3c(CC(F)(F)F)c(C#CCNC(=O)c4ccn5c4CCC5)nn23)[C@@H](F)C1 [Compound 302, N-[3-(7-{[(3S,4R)-3-fluoro-1-methylpiperidin-4-yl]amino}-3-(2,2,2-trifluoroethyl)pyrazolo[1,5-a]pyridin-2-yl)prop-2-yn-1-yl]-2,3-dihydro-1H-pyrrolizine-7-carboxamide]"
2,14,"CN1CC[C@@H](Nc2cccc3c(CC(F)(F)F)c(C#CCNC(=O)c4cnn(C5(O)CC5)c4)nn23)[C@@H](F)C1 [Compound 303, N-[3-(7-{[(3S,4R)-3-fluoro-1-methylpiperidin-4-yl]amino}-3-(2,2,2-trifluoroethyl)pyrazolo[1,5-a]pyridin-2-yl)prop-2-yn-1-yl]-1-(1-hydroxycyclopropyl)-1H-pyrazole-4-carboxamide]"
3,13,CN1CC[C@@H](Nc2cccc3c(CC(F)(F)F)c(C#CCNC(=O)c4cnn(C5(F)CC5)c4)nn23)[C@@H](F)C1 [Compound 304]
4,32,"CNc1c(C(=O)NCC#Cc2nn3c(N[C@@H]4CCN(C)C[C@@H]4F)cccc3c2CC(F)(F)F)cnn1C(C)(C)C [Compound 307, 1-(tert-butyl)-N-[3-(7-{[(3S,4R)-3-fluoro-1-methylpiperidin-4-yl]amino}-3-(2,2,2-trifluoroethyl)pyrazolo [1,5-a]pyridin-2-yl)prop-2-yn-1-yl]-5-(methylamino)-1H-pyrazole-4-carboxamide]"
5,74,"CN1CC[C@@H](Nc2cccc3c(CC(F)(F)F)c(C#CCNC(=O)c4cn(C)c(C(F)F)n4)nn23)[C@@H](F)C1 [Compound 309, 2-difluoromethyl-N-[3-(7-{[(3S,4R)-3-fluoro-1-methylpiperidin-4-yl]amino}-3-(2,2,2-trifluoroethyl)pyrazolo[1,5-a]pyridin-2-yl)prop-2-yn-1-yl]-1-methyl-1H-imidazole-4-carboxamide]"
6,11,"CN1CC[C@@H](Nc2cccc3c(CC(F)(F)F)c(C#CCNC(=O)c4cnn(CCO)c4)nn23)[C@@H](F)C1 [Compound 310, N-[3-(7-{[(3S,4R)-3-fluoro-1-methylpiperidin-4-yl]amino}-3-(2,2,2-trifluoroethyl)pyrazolo[1,5-a]pyridin-2-yl)prop-2-yn-1-yl]-1-(2-hydroxyethyl)-1H-pyrazole-4-carboxamide]"
7,99,"CC(C)c1cc(C(=O)NCC#Cc2nn3c(N[C@@H]4CCN(C)C[C@@H]4F)cccc3c2CC(F)(F)F)no1 [Compound 321, N-[3-(7-{[(3S,4R)-3-fluoro-1-methylpiperidin-4-yl]amino}-3-(2,2,2-trifluoroethyl)pyrazolo[1,5-a]pyridin-2-yl)prop-2-yn-1-yl]-5-isopropylisoxazole-3-carboxamide]"
8,57,"CC(C)c1cc(C(=O)NCC#Cc2nn3c(N[C@@H]4CCN(C)C[C@@H]4F)cccc3c2CC(F)(F)F)on1 [Compound 323, N-[3-(7-{[(3S,4R)-3-fluoro-1-methylpiperidin-4-yl]amino}-3-(2,2,2-trifluoroethyl)pyrazolo[1,5-a]pyridin-2-yl)prop-2-yn-1-yl]-3-isopropylisoxazole-5-carboxamide]"
9,29,"CN1CC[C@@H](Nc2cccc3c(CC(F)(F)F)c(C#CCNC(=O)c4ncn(C)n4)nn23)[C@@H](F)C1 [Compound 324, N-[3-(7-{[(3S,4R)-3-fluoro-1-methylpiperidin-4-yl]amino}-3-(2,2,2-trifluoroethyl)pyrazolo[1,5-a]pyridin-2-yl)prop-2-yn-1-yl]-1-methyl-1H-1,2,4-triazole-3-carboxamide]"
10,35,"CN1CC[C@@H](Nc2cccc3c(CC(F)(F)F)c(C#CCNC(=O)c4cnn(C)n4)nn23)[C@@H](F)C1 [Compound 325, N-[3-(7-{[(3S,4R)-3-fluoro-1-methylpiperidin-4-yl]amino}-3-(2,2,2-trifluoroethyl)pyrazolo[1,5-a]pyridin-2-yl)prop-2-yn-1-yl]-2-methyl-2H-1,2,3-triazole-4-carboxamide]"
11,27,"CN1CC[C@@H](Nc2cccc3c(CC(F)(F)F)c(C#CCNC(=O)c4cnn(C)c4F)nn23)[C@@H](F)C1 [Compound 327, 5-fluoro-N-[3-(7-{[(3S,4R)-3-fluoro-1-methylpiperidin-4-yl]amino}-3-(2,2,2-trifluoroethyl)pyrazolo[1,5-a]pyridin-2-yl)prop-2-yn-1-yl]-1-methyl-1H-pyrazole-4-carboxamide]"
12,9,"CCn1cc(C(=O)NCC#Cc2nn3c(N[C@@H]4CCN(C)C[C@@H]4F)cccc3c2CC(F)(F)F)c(N)n1 [Compound 329, 3-amino-1-ethyl-N-(3-(7-{[(3S,4R)-3-fluoro-1-methylpiperidin-4-yl]amino}-3-(2,2,2-trifluoroethyl)pyrazolo[1,5-a]pyridin-2-yl)prop-2-yn-1-yl]-1H-pyrazole-4-carboxamide]"
13,33,"CN1CC[C@@H](Nc2cccc3c(CC(F)(F)F)c(C#CCNC(=O)c4cccc(C(C)(C)O)c4)nn23)[C@@H](F)C1 [Compound 334, N-[3-(7-{[(3S,4R)-3-fluoro-1-methylpiperidin-4-yl]amino}-3-(2,2,2-trifluoroethyl)pyrazolo[1,5-a]pyridin-2-yl)prop-2-yn-1-yl)-3-(2-hydroxyprop-2-yl)benzamide]"
14,41,"COc1cncc(C(=O)NCC#Cc2nn3c(N[C@@H]4CCN(C)C[C@@H]4F)cccc3c2CC(F)(F)F)c1 [Compound 335, N-[3-(7-{[(3S,4R)-3-fluoro-1-methylpiperidin-4-yl]amino}-3-(2,2,2-trifluoroethyl)pyrazolo[1,5-a]pyridin-2-yl)prop-2-yn-1-yl]-5-methoxynicotinamide]"
15,68,"CCc1cc(C(=O)NCC#Cc2nn3c(N[C@@H]4CCN(C)C[C@@H]4F)cccc3c2CC(F)(F)F)cs1 [Compound 336, 5-ethyl-N-[3-(7-{[(3S,4R)-3-fluoro-1-methylpiperidin-4-yl]amino}-3-(2,2,2-trifluoroethyl)pyrazolo[1,5-a]pyridin-2-yl)prop-2-yn-1-yl]thiophene-3-carboxamide]"
16,92,"CN1CC[C@@H](Nc2cccc3c(CC(F)(F)F)c(C#CCNC(=O)c4cccc(F)c4)nn23)[C@@H](F)C1 [Compound 339, 3-fluoro-N-[3-(7-{[(3S,4R)-3-fluoro-1-methylpiperidin-4-yl]amino}-3-(2,2,2-trifluoroethyl)pyrazolo[1,5-a]pyridin-2-yl)prop-2-yn-1-yl]benzamide]"
17,25,CCn1ncc(C(=O)NCC#Cc2nn3c(N[C@@H]4CCN(C)C[C@@H]4F)cccc3c2CC(F)(F)F)c1Cl [Compound 343]
18,56,CCn1cc(C(=O)NCC#Cc2nn3c(N[C@@H]4CCN(C)C[C@@H]4F)cccc3c2CC(F)(F)F)c(Cl)n1 [Compound 344]
19,18,"CN1CC[C@@H](Nc2cccc3c(CC(F)(F)F)c(C#CCNC(=O)c4cnn(C(C)(C)C5CC5)c4)nn23)[C@@H](F)C1 [Compound 346, 1-(2-cyclopropylprop-2-yl)-N-[3-(7-{[(3S,4R)-3-fluoro-1-methylpiperidin-4-yl]amino}-3-(2,2,2-trifluoroethyl)pyrazolo[1,5-a]pyridin-2-yl)prop-2-yn-1-yl]-1H-pyrazole-4-carboxamide]"
